Biological target: ASK1 (Apoptosis Signal-Regulating Kinase 1) (Homo sapiens (Human), UniProt Q99683)
Experiment: ASK1 (Apoptosis Signal-Regulating Kinase 1) TR-FRET Kinase Assay (Biochemical IC50)
Conditions: TR-FRET, biotin-MBP substrate, 20 min pre-incubation, ATP added as 300 μM solution

ASK1 (Apoptosis Signal-Regulating Kinase 1), sequence (Q99683 649-946): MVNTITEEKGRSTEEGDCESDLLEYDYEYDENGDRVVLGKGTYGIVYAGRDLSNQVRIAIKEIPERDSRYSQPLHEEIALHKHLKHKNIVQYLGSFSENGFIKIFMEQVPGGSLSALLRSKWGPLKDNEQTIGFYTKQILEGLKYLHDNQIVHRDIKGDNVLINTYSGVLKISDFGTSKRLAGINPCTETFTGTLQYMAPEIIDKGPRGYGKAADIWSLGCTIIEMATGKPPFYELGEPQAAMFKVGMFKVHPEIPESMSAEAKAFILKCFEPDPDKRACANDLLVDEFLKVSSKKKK

SMILES | IC50
COc1ncc(-c2ccnc(C(=O)Nc3cccc(-c4nncn4C4CC4)c3)c2)c(OC)n1 [Example 49, N-(3-(4-cyclopropyl-4H-1,2,4-triazol-3-yl)phenyl)-4-(2,4-dimethoxypyrimidin-5-yl)picolinamide] | 8 nM
O=C(Nc1cccc(-c2nncn2C2CC2)c1)c1cc(-c2ccc(C3CC3)nc2)ccn1 [Example 50, 6-cyclopropyl-N-(3-(4-cyclopropyl-4H-1,2,4-triazol-3-yl)phenyl)-3,4′-bipyridine-2′-carboxamide] | 8 nM
NC(=O)c1ccc(-c2ccnc(C(=O)Nc3cccc(-c4nncn4C4CC4)c3)c2)cn1 [Example 51, N2′-(3-(4-cyclopropyl-4H-1,2,4-triazol-3-yl)phenyl)-3,4′-bipyridine-2′,6-dicarboxamide] | 8 nM
O=C(Nc1cccc(-c2nncn2C2CC2)c1)c1cc(-c2ccc(C(F)(F)F)nc2)ccn1 [Example 52, N-(3-(4-cyclopropyl-4H-1,2,4-triazol-3-yl)phenyl)-6-(trifluoromethyl)-3,4′-bipyridine-2′-carboxamide] | 12 nM
Cc1ccc(-c2ccnc(C(=O)Nc3cccc(-c4nncn4C4CC4)c3)c2)cn1 [Example 53, N-(3-(4-cyclopropyl-4H-1,2,4-triazol-3-yl)phenyl)-6-methyl-3,4′-bipyridine-2′-carboxamide] | 11 nM
O=C(Nc1cccc(-c2nncn2C2CC2)n1)c1cc(-c2cccnc2)ccn1 [Example 54, N-(6-(4-cyclopropyl-4H-1,2,4-triazol-3-yl)pyridin-2-yl)-3,4′-bipyridine-2′-carboxamide] | 5 nM
C[C@H]1C[C@@H]1n1cnnc1-c1cccc(NC(=O)c2cc(-c3cccnc3)ccn2)c1 [Example 55, N-(3-(4-((1S,2S)-2-methylcyclopropyl)-4H-1,2,4-triazol-3-yl)phenyl)-3,4′-bipyridine-2′-carboxamide] | 24 nM
O=C(Nc1cccc(-c2nncn2C2CC2)c1)c1cc(-c2ccc(OCC(F)(F)F)nc2)ccn1 [Example 56, N-(3-(4-cyclopropyl-4H-1,2,4-triazol-3-yl)phenyl)-6-(2,2,2-trifluoroethoxy)-3,4′-bipyridine-2′-carboxamide] | 69 nM
Cc1ccncc1-c1ccnc(C(=O)Nc2cccc(-c3nncn3C3CC3)c2)c1 [Example 57, N-(3-(4-cyclopropyl-4H-1,2,4-triazol-3-yl)phenyl)-4-methyl-3,4′-bipyridine-2′-carboxamide] | 244 nM
O=C(Nc1cccc(-c2nncn2CC(F)(F)F)c1)c1cc(-c2cccnc2)ccn1 [Example 58, N-(3-(4-(2,2,2-trifluoroethyl)-4H-1,2,4-triazol-3-yl)phenyl)-3,4′-bipyridine-2′-carboxamide] | 290 nM
O=C(Nc1cccc(-c2nncn2C2CC2)c1)c1cc(-c2cncc(C(F)(F)F)c2)ccn1 [Example 59, N-(3-(4-cyclopropyl-4H-1,2,4-triazol-3-yl)phenyl)-5-(trifluoromethyl)-3,4′-bipyridine-2′-carboxamide] | 44 nM
O=C(Nc1cccc(-c2nncn2C2CC2)c1)c1cc(-c2cncc(F)c2)ccn1 [Example 60, N-(3-(4-cyclopropyl-4H-1,2,4-triazol-3-yl)phenyl)-5-fluoro-3,4′-bipyridine-2′-carboxamide] | 23 nM
O=C(Nc1cccc(-c2nncn2CC2(O)CC2)c1)c1cc(-c2cccnc2)ccn1 [Example 61, N-(3-(4-((1-hydroxycyclopropyl)methyl)-4H-1,2,4-triazol-3-yl)phenyl)-3,4′-bipyridine-2′-carboxamide] | 174 nM
C[C@@H](n1cnnc1-c1cccc(NC(=O)c2cc(-c3cccnc3)ccn2)c1)C(F)(F)F [Example 62, (R)-N-(3-(4-(1,1,1-trifluoropropan-2-yl)-4H-1,2,4-triazol-3-yl)phenyl)-3,4′-bipyridine-2′-carboxamide] | 1240 nM

Other lines, results leading:

IC50 | SMILES
21 nM | C[C@H](n1cnnc1-c1cccc(NC(=O)c2cc(-c3cccnc3)ccn2)c1)C(F)(F)F [Example 63, (S)-N-(3-(4-(1,1,1-trifluoropropan-2-yl)-4H-1,2,4-triazol-3-yl)phenyl)-3,4′-bipyridine-2′-carboxamide]
17 nM | NC(=O)c1cncc(-c2ccnc(C(=O)Nc3cccc(-c4nncn4C4CC4)c3)c2)c1 [Example 64, N2′-(3-(4-cyclopropyl-4H-1,2,4-triazol-3-yl)phenyl)-3,4′-bipyridine-2′,5-dicarboxamide]
30 nM | N#Cc1cncc(-c2ccnc(C(=O)Nc3cccc(-c4nncn4C4CC4)c3)c2)c1 [Example 65, 5-cyano-N-(3-(4-cyclopropyl-4H-1,2,4-triazol-3-yl)phenyl)-3,4′-bipyridine-2′-carboxamide]
86 nM | Nc1ncccc1-c1ccnc(C(=O)Nc2cccc(-c3nncn3C3CC3)c2)c1 [Example 66, 2-amino-N-(3-(4-cyclopropyl-4H-1,2,4-triazol-3-yl)phenyl)-3,4′-bipyridine-2′-carboxamide]
60 nM | COc1ncccc1-c1ccnc(C(=O)Nc2cccc(-c3nncn3C3CC3)c2)c1 [Example 67, N-(3-(4-cyclopropyl-4H-1,2,4-triazol-3-yl)phenyl)-2-methoxy-3,4′-bipyridine-2′-carboxamide]
39 nM | Cn1cc(-c2ccnc(C(=O)Nc3cccc(-c4nncn4C4CC4)c3)c2)cn1 [Example 68, N-(3-(4-cyclopropyl-4H-1,2,4-triazol-3-yl)phenyl)-4-(1-methyl-1H-pyrazol-4-yl)picolinamide]
11 nM | O=C(Nc1cccc(-c2nncn2C2CC2)c1)c1cc(-c2cnc3ccccn23)ccn1 [Example 69, N-(3-(4-cyclopropyl-4H-1,2,4-triazol-3-yl)phenyl)-4-(imidazo[1,2-a]pyridin-3-yl)picolinamide]
106 nM | O=C(Nc1cccc(-c2nncn2C2CC2)c1)c1cc(-c2ccc(-c3ccc(Cl)nc3)nc2)ccn1 [Example 70, 6-Chloro-[3,2′:5′,4′]terpyridine-2″-carboxylic acid [3-(4-cyclopropyl-4H-[1,2,4]triazol-3-yl)-phenyl]-amide]
17 nM | COc1cncc(-c2ccnc(C(=O)Nc3cccc(-c4nncn4C4CC4)c3)c2)c1 [Example 71, N-(3-(4-cyclopropyl-4H-1,2,4-triazol-3-yl)phenyl)-5-methoxy-3,4′-bipyridine-2′-carboxamide]
36 nM | O=C(Nc1cccc(-c2cncn2C2CC2)c1)c1cc(-c2cccnc2)ccn1 [Example 72, N-(3-(1-cyclopropyl-1H-imidazol-5-yl)phenyl)-3,4′-bipyridine-2′-carboxamide]
11 nM | Cc1ncc(-c2ccnc(C(=O)Nc3cccc(-c4nncn4C4CC4)c3)c2)n1C [Example 73, N-(3-(4-cyclopropyl-4H-1,2,4-triazol-3-yl)phenyl)-4-(1,2-dimethyl-1H-imidazol-5-yl)picolinamide]
79 nM | Cc1ncccc1-c1ccnc(C(=O)Nc2cccc(-c3nncn3C3CC3)c2)c1 [Example 74, N-(3-(4-cyclopropyl-4H-1,2,4-triazol-3-yl)phenyl)-2-methyl-3,4′-bipyridine-2′-carboxamide]
10 nM | CC(C)(C)NC(=O)c1cncc(-c2ccnc(C(=O)Nc3cccc(-c4nncn4C4CC4)c3)c2)c1 [Example 75, N5-tert-butyl-N2′-(3-(4-cyclopropyl-4H-1,2,4-triazol-3-yl)phenyl)-3,4′-bipyridirie-2′,5-dicarboxamide]

Source: patent publication USRE48711E1, “Apoptosis signal-regulating kinase inhibitors” (Gilead Sciences, Inc., priority 2009, dated 2021)
